According to article PMC3197762 (Nature chemical biology, 2011):

Experiments:
[1] = test system: HTLA cells not expressing a Tango receptor; test: Tango negative control, cells transfected with pEYFP-N1; type: cell-based, human
human V2 Tango receptor = human V2 Tango receptor (Homo sapiens, UniProt P30518); test: Tango control, human V2 Tango receptor; type: cell-based; conditions: data not shown

SMILES	activity on HTLA cells not expressing a Tango receptor [1]	effect on HTLA cells expressing the human V2 Tango receptor (human V2 Tango receptor)
CCCN1CCC[C@@H]2Cc3n[nH]cc3C[C@H]21 [Quinpirole]	inactive	no effect
CN(C)CCCN1c2ccccc2Sc2ccc(Cl)cc21 [Chlorpromazine]	inactive	no effect
